Experimental data: patent US20080081801A1, “PORPHYRIN OXYGEN INFUSION FOR INCREASING CONCENTRATIONS IN TUMOR TISSUES” (priority 2002, published 2008)

Test system: Ascites hepatoma LY80
Experiment: Oxygen partial pressure in tumor tissues of tumor-bearing rats after intra-arterial injection of the sample (phosphorescence quenching, PdPor, OxySpot)
Type: in vivo, Donryu rats
Conditions: oxygen-saturated sample
Protocol: Animals with cancer were prepared by transplanting tumor cells in desired sites of laboratory animals such as, for example, rats, hamsters, rabbits or beagles.
Rats were bred for several days until tumors develop and then subjected to experiments under anesthesia (e.g., using Nembutal, diethyl ether or halothane anesthetic gas). Rats were intubated through the cervical trachea and ventilated under positive pressure by a respirator. A polyethylene catheter was inserted into a left carotid artery so that a distal end of the catheter is located at a position short of a bifurcation of the common iliac artery, and then backward cannulation was carried out to provide an administration rout of sample in the descending aorta.
The oxygen partial pressure in the tumor tissues may be determined by intravenously injecting a phosphorescent probe (palladium coproporphyrin (PdPor)), irradiating light, and monitoring a phosphorescence quenching time with an oxygen partial pressure monitor. PdPor is intravenously injected through a tail vein at 5-20 minutes before administration of the sample. […] The oxygen partial pressure in the tumor site of the right leg was measured at 5 to 30 points in air or an atmosphere containing 99% oxygen with a device for measurement of an oxygen partial pressure (e.g., OxySpot (Trademark) made by Medical System Corp.), and served as controls. […]

For “bovine serum albumin: serum albumin, injected oxygen-saturated without porphyrin”, the “change in the oxygen partial pressure (PO2) in the tumor tissue” value was “no change”.
